From patent publication US10125095B2, “Abscisic acid derivative” (NATIONAL UNIVERSITY CORPORATION SHIZUOKA UNIVERSITY, priority 2014, dated 2018) come the findings set out here.

Test [1] has as its system lettuce (Lactuca saliva) seeds. The test can be described thus: Lettuce seed germination test. It counts as in vivo. As to conditions: co-applied with ABA.
Test [2] relates to bok choy (Brassica rapa var. chinensis) seeds. The test can be described thus: Bok choy seed germination test. As to conditions: co-applied with ABA. It counts as in vivo.
The target of test [3] is T1, HAB1 (Arabidopsis thaliana, UniProt Q9CAJ0).
T1 construct: GST (N); made in house; host or cells: Escherichia coli BL21(DE3)pLysS
T1 sequence (Q9CAJ0 23-511): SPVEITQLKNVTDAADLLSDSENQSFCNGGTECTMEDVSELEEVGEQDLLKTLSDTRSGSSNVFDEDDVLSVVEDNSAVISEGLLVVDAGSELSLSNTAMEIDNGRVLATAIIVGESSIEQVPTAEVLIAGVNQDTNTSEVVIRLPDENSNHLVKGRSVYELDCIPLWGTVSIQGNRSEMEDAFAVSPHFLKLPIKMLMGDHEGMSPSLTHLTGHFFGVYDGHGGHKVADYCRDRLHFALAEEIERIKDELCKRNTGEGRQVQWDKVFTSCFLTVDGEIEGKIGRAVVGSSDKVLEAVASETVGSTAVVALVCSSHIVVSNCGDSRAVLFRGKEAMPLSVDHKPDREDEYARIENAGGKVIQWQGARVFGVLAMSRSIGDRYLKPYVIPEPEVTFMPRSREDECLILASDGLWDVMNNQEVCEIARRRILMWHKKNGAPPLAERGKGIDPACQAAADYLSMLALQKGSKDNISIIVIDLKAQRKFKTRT
Nature of the test: Protein dephosphorylation enzyme activity test, no receptor. The following applies: control = 100%. It counts as biochemical, thale cress. The procedure: (§1) A plasmid (pGex-2T-GST-HAB1 or pET28-6×His-PYL) encoded with PYR/PYL/RCAR proteins (PYL, abscisic acid receptor) or protein dephosphorylation enzyme HAB1 of thale cress was transformed to Escherichia coli (HAB1:BL21(DE3)pLysS, PYL:BL21-codonplus(DE3)-RIPL). Isopropyl-β-thiogalactopyranoside was added to the culture broth, which had been subjected to pre-culture (30° C., 180 rpm, 15 hours) and main culture (30° C., 180 rpm, 4 hours), and the protein-expressed (16° C., 150 rpm, 18 hours) crude enzyme solution was purified using FPLC thereby preparing the recombined PYL (PYR1, PYL1-6, PYL8-10) and HAB1. β-Mercaptoethanol, a manganese chloride aqueous solution, HAB1, PYL, a solution of the sample in dimethylsulfoxide and ultrapure water were sequentially added to a 96-well plate, allowed to stand at 22° C. for 30 minutes. Subsequently p-nitrophenylphosphate, which is the artificial substrate of HAB1, was added thereto to start the reaction, and the plate was placed in a microplate reader (TECAN, Infinite™ N200 NanoQuant). The absorbance at 405 nm due to p-nitrophenol, which is the hydrolysate of p-nitrophenylphosphate, was measured 3 minutes later from the reaction initiation, and HAB1 activity was calculated by the following formula (2). Note that the fraction to which only dimethylsulfoxide was added was considered to be the control and the activity thereof was defined as 100%. […] HAB1 specific activity (%)=Absorbance when sample was added/Absorbance of control×100 (2)

Test [4] deals with T2, PYL9 (Arabidopsis thaliana, UniProt Q84MC7).
T2 construct: 6xHis (N); made in house; host or cells: Escherichia coli BL21-codonplus(DE3)-RIPL (PYL); BL21(DE3)pLysS (HAB1)
T2 sequence (Q84MC7 1-187): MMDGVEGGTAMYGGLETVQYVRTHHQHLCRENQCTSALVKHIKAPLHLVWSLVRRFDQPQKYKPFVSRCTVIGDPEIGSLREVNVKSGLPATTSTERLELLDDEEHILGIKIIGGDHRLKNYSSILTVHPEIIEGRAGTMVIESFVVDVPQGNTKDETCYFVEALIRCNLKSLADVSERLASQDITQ
The test can be described thus: Protein dephosphorylation enzyme activity test, PYL9. It counts as biochemical, thale cress. The following applies: control = 100%. Here is the method: as §1

In test [5] the test system is thale cress (Arabidopsis thaliana, Col-0) seedlings. The test can be described thus: Thale cress growth test. It counts as in vivo. As to conditions: sprayed once a day, three weeks' culture. The procedure: Seeds of thale cress (Arabidopsis thaliana, Col-0) were sequentially immersed for 1 minute respectively in 500 μL of an aqueous solution of 5% bleach+1% SDS, 500 μL of a 70% aqueous solution of ethanol and 500 μL of a 70% aqueous solution of ethanol, washed five times in 1 mL of sterilized water, and then suspended in a 0.1% aqueous solution of agar. 25 mL each of germination medium (containing ½ MS medium inorganic salts) sterilized in an autoclave was added to a sterilized plastic petri dish, in which 60 to 80 seeds suspended in the 0.1% aqueous solution of agar were planted and, in a dark place, the seeds were vernilized at 4° C. for 3 days. The seeds were cultured at 22° C. under continuous light for 10 days. 40 g […] of sterilized soil (organic culture soil:vermiculite=1:1) was added to a plastic pot (50 mm×50 mm×50 mm, 35 mm bottom surface×35 mm height). Six plastic pots thus provided were placed in a 3000 mL-tray, 300 mL (depth 10 mm) of an aqueous solution of 1000-fold diluted HYPONeX (tradename (registered trademark), product of HYPONeX JAPAN CORP., LTD.) was added thereto and five roots each of thale cress seedlings were transplanted from the plastic petri dish. The seedlings were cultured at 22° C. under conditions of 16 hour light period-8 hour dark period, and 1 mL of an aqueous solution (prepared so as the final concentration of the compound of Example 7 to be 50 μM) of 0.1% DMSO (containing the compound of Example 7)+0.1% Approach BI (tradename (registered trademark), product of Kao Corporation) was sprayed once a day. Further, 300 mL of an aqueous solution of 2000-fold diluted HYPONeX was added every week. The same treatment as above was carried out using the compound of Comparative Example 1. Note that the seedlings, to which 1 mL of an aqueous solution of 0.1% DMSO+0.1% Approach BI without containing the above compound was sprayed once a day, were used as controls. […]

Turning to `CC1=C[C@@H](OCC#Cc2ccccc2)CC(C)(C)[C@@]1(O)/C=C/C(C)=C\C(=O)O` [Example 1, (2Z,4E)-5-((1S,4S)-1-hydroxy-2,6,6-trimethyl-4-((3-phenylprop-2-yn-1-yl)oxy)cyclohex-2-en-1-yl)-3-methylpenta-2,4-dienoic acid], the “Recovery of seed germination rate decreased by ABA” value in test [1] and in test [2] was “recovered the seed germination rates once decreased by ABA” in each case. Besides, the “HAB1 Specific activity (%) None” value in test [3] (ABA + compound) was 81%; in test [3] (sample alone) it was 83.8%. Besides, the “HAB1 Specific activity (%) PYL9” value stood at 90% in test [4] (ABA + compound) and 111% in test [4] (sample alone).

On to `CC1=C[C@@H](OCC#Cc2ccc(C)cc2)CC(C)(C)[C@@]1(O)/C=C/C(C)=C\C(=O)O` [Example 7], for which the “Growth suppression effect of ABA on thale cress” value in test [5] (50 μM compound co-applied with 5 μM ABA) was “the growth suppression effect by ABA was notably improved and the thale cress growth was recovered to the same extent as the controls”.

As for `CC1=CC(=O)CC(C)(C)[C@@]1(O)/C=C/C(C)=C\C(=O)O` [ABA, abscisic acid], the “Growth of thale cress” value in test [5] (only ABA, 5 μM) is recorded as “the growth of thale cress was notably suppressed”. Also, the “HAB1 Specific activity (%) None” value in test [3] (sample alone) amounted to 97%. The “HAB1 Specific activity (%) PYL9” value in test [4] (sample alone) is reported as 31%.
